“Also recorded” adds a separate entry of the source.
Tests used:
[1] = tested on: Balb/c mice; assay: Animal transfection of lipid nanoparticles, in vivo imaging after 12 h; conditions: for Multiple of local photon intensity in the supine position relative to MC3 / Multiple of photon intensity of the viscera in the supine position relative to MC3: Table 8, 0.1 mg/kg FFluc mRNA, 12 h; for Multiple of local photon intensity in the supine position relative to MC3: injection site; for Multiple of photon intensity of the viscera in the supine position relative to MC3: viscera (liver); for toxic and side effect on the liver: inferred from expression in the liver 12 h after administration
Description: (§1) Balb/c mice (available from Vital River Laboratory Animal Technology Co., Ltd., male, 6-8 weeks old, 20-24 g) were randomized into groups, 5 mice per group. The mice were injected the prepared lipid nanoparticles into the leg muscle at a dose of 0.1 mg/kg (calculated as to FFluc mRNA (SEQ ID NO.1)) and observed by in vivo imaging after 12 h. The injection sites on the bellies and legs of Balb/c mice were depilated, and after anesthesia, the animals were injected D-luciferin potassium salt intraperitoneally, and were observed and photographed in an IVIS living body imager (PerkinElmer, Series III), wherein the observation time of living body images was within 15 min after the injection of substrate. Table 7. Results of animal transfection efficiency of lipid nanoparticles made from different cationic lipids

[2] = tested on: Balb/c mice; assay: Animal transfection of lipid nanoparticles, in vivo imaging after 24 h; conditions: leg muscle injection, 0.1 mg/kg FFluc mRNA; for Multiple of total photon intensity in the supine position relative to MC3: Table 5, Balb/c mice; for Multiple of local photon intensity in the supine position relative to MC3: Table 5, injection site
Description: as §1, with “24” for “12”, “5.” for “7.”

SMILES	Multiple of local photon intensity in the supine position relative to MC3 ([1]; 0.1 mg/kg)	Multiple of photon intensity of the viscera in the supine position relative to MC3 [1]	toxic and side effect on the liver [1]	Multiple of local photon intensity in the supine position relative to MC3 [1]	Multiple of total photon intensity in the supine position relative to MC3 [2]	Multiple of local photon intensity in the supine position relative to MC3 [2]
CCCCCCCCC(CCCCCCCC)OC(=O)CCCCC(=O)OCC(CN(C)CCN1CCCC1)OC(=O)CCCCC(=O)OC(CCCCCCCC)CCCCCCCC (stereo not drawn) [Compound 18]	equivalent; also recorded: not weaker than that of MC3 LNP	almost have no expression in the liver	completely avoid liver toxicity; also recorded: completely avoid the toxic and side effect on the liver			
CCCCCCCCC(CCCCCC)C(=O)OCC(CN(C)CCN1CCCC1)OC(=O)C(CCCCCC)CCCCCCCC (stereo not drawn) [Compound 1]				not weaker than that of MC3 LNP	1.668	significantly higher
CCCCCCCCC(CCCCCCCC)OC(=O)CCCCC(=O)OCC(CN(C)CCN1CCN(C)CC1)OC(=O)CCCCC(=O)OC(CCCCCCCC)CCCCCCCC (stereo not drawn) [Compound 17]	equivalent; also recorded: not weaker than that of MC3 LNP	almost have no expression in the liver	completely avoid liver toxicity; also recorded: completely avoid the toxic and side effect on the liver			
CCCCCCCCC(CCCCCC)C(=O)OCC(CN(C)CCN1CCN(C)CC1)OC(=O)C(CCCCCC)CCCCCCCC (stereo not drawn) [Compound 2]				not weaker than that of MC3 LNP	equivalent	significantly higher

From patent EP4603481A1, “PREPARATION AND USE OF CATIONIC LIPID MATERIAL” (Nanjing Geneleap Biotechnology Co., Ltd., priority 2022, dated 2024)
